Tests used:
[1] = target: T1, human NMDA receptor GluN1-GluN2A (Homo sapiens, UniProt Q05586+Q12879); experiment: FLIPR calcium assay, quinolinic acid, gentamicin, dextromethadone (Example 5 Part II), GluN1-GluN2A-CHO; assay type: cell-based; parameters: calcium response (mean±SEM): unit not given here; conditions: for calcium response (mean±SEM): GluN2A, n=42
T1 construct: expressed in transfected cells; host or cells: CHO
Protocol: (§1) Quinolinic acid or gentamicin CRCs were also produced, in presence of 10 μM glycine.
(§2) Test items were evaluated in FLIPR for their ability to modulate, alone or in combination, calcium entry in presence of […], using four CHO cell lines expressing diheteromeric human NMDA receptor (NMDAR): GluN-/GluN2A-CHO, GluN1-GluN2B-CHO, GluN1-GluN2C-CHO, GluN1-GluN2D-CHO.
(§3) The first aim of the study was to evaluate quinolinic acid or gentamicin CRC effect in the presence of 10 μM glycine.
(§4) FLIPR determination of intracellular calcium level was used as a read-out for NMDAR activation.
(§5) 400× compound plate was stored at −20° C. till FLIPR experimental day.
(§6) A 4× compound plate was generated from 400× compound plate by addition of up to 30 μl/well of compound buffer on FLIPR experimental day.
(§7) A FLIPR system was used to monitor intracellular calcium level in NMDAR cell lines, pre-loaded for 1 hour with Fluo-4, and then washed with assay buffer.
(§8) Y=Bottom+(Top−Bottom)/(1+10^((LogEC50−X)*HillSlope))
(§9) Test item CRC data were plotted by Prism 8 GraphPad software, in the different experimental conditions. And, column analysis, performed by Prism 8 GraphPad software, was one way ANOVA followed by Tukey's multiple comparisons test, with a single pooled variance.

[2] = target: T2, human NMDA receptor GluN1-GluN2B (Homo sapiens, UniProt Q05586+Q13224); experiment: FLIPR calcium assay, quinolinic acid, gentamicin, dextromethadone (Example 5 Part II), GluN1-GluN2B-CHO; assay type: cell-based; conditions: for calcium response (mean±SEM): GluN2B, n=42; for Response at max conc (%): quinolinic acid CRC, max 1,000 μM
T2 construct: expressed in transfected cells; host or cells: CHO
Protocol: as §1, §2, §3, §4, §5, §6, §7, §8, §9

[3] = target: T3, human NMDA receptor GluN1-GluN2C (Homo sapiens, UniProt Q05586+Q14957); experiment: FLIPR calcium assay, quinolinic acid, gentamicin, dextromethadone (Example 5 Part II), GluN1-GluN2C-CHO; assay type: cell-based; conditions: for calcium response (mean±SEM): GluN2C, n=42
T3 construct: expressed in transfected cells; host or cells: CHO
Protocol: as §1, §2, §3, §4, §5, §6, §7, §8, §9

[4] = target: T4, human NMDA receptor GluN1-GluN2D (Homo sapiens, UniProt O15399+Q05586); experiment: FLIPR calcium assay, quinolinic acid, gentamicin, dextromethadone (Example 5 Part II), GluN1-GluN2D-CHO; assay type: cell-based; conditions: for calcium response (mean±SEM): GluN2D, n=42
T4 construct: expressed in transfected cells; host or cells: CHO
Protocol: as §1, §2, §3, §4, §5, §6, §7, §8, §9

[5] = target: rat GluN1-GluN2B receptor (Rattus norvegicus, UniProt P35439+Q00960); conditions: Banke and Traynelis, 2003; read-out: potency; cited from earlier work
[6] = 0.04 μM L-Glu + 100 μM QA, 10 μM glycine
[7] = 0.04 μM L-Glu + 1000 μM QA, 10 μM glycine
[8] = 0.2 μM L-Glu + 100 μM QA, 10 μM glycine
[9] = 0.2 μM L-Glu + 1000 μM QA, 10 μM glycine
[10] = 100 μM QA, 10 μM glycine, 100% = 10 μM L-glutamate plus 10 μM glycine
[11] = 1000 μM QA, 10 μM glycine, 100% = 10 μM L-glutamate plus 10 μM glycine
[12] = 1000 μM QA, 10 μM glycine, 100% = 10 μM L-glutamate plus 10 μM glycine, listed as QA
[13] = CRC in presence of 10 μM glycine
[14] = quinolinic acid CRC, max 1,000 μM, 10 μM glycine

T2 sequence (Q13224 27-1484, other chains not shown): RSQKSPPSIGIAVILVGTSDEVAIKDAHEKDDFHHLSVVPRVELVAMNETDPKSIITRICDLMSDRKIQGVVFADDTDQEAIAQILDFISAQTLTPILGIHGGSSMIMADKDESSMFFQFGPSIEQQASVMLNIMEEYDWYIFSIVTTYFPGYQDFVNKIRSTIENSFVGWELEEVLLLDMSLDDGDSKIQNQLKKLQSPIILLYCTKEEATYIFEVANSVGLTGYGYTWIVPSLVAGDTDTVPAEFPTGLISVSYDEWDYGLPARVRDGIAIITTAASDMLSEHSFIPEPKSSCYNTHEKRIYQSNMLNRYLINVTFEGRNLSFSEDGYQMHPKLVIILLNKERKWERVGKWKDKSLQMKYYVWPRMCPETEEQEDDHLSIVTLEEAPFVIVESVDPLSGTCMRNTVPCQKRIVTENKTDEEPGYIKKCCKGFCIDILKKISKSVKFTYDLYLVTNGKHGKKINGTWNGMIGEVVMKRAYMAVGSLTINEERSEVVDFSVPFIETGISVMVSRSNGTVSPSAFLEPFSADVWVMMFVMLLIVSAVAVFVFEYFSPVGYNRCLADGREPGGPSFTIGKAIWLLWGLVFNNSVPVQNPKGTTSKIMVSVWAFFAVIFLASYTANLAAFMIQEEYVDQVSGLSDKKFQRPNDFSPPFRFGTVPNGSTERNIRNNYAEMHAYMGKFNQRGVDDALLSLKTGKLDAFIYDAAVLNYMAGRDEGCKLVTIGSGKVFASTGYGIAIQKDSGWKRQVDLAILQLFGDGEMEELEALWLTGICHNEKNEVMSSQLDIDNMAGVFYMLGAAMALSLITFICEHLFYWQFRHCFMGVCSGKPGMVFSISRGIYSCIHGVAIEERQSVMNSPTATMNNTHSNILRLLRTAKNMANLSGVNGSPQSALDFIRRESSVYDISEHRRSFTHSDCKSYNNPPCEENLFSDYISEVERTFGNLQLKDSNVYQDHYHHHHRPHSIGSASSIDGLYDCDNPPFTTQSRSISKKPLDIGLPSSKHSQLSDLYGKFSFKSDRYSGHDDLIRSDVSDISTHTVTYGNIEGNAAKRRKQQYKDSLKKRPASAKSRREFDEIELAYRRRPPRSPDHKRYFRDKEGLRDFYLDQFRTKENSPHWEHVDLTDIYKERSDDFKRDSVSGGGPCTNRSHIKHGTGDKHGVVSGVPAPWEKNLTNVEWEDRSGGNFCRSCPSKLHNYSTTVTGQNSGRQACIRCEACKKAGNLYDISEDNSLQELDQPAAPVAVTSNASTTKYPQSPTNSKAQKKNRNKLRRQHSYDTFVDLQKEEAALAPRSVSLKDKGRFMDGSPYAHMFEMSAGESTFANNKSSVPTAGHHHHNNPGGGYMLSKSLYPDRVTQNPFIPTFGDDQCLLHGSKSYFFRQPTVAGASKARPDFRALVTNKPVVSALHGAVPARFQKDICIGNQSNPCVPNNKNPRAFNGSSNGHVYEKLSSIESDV
T1 sequence (Q12879 23-1464, other chains not shown): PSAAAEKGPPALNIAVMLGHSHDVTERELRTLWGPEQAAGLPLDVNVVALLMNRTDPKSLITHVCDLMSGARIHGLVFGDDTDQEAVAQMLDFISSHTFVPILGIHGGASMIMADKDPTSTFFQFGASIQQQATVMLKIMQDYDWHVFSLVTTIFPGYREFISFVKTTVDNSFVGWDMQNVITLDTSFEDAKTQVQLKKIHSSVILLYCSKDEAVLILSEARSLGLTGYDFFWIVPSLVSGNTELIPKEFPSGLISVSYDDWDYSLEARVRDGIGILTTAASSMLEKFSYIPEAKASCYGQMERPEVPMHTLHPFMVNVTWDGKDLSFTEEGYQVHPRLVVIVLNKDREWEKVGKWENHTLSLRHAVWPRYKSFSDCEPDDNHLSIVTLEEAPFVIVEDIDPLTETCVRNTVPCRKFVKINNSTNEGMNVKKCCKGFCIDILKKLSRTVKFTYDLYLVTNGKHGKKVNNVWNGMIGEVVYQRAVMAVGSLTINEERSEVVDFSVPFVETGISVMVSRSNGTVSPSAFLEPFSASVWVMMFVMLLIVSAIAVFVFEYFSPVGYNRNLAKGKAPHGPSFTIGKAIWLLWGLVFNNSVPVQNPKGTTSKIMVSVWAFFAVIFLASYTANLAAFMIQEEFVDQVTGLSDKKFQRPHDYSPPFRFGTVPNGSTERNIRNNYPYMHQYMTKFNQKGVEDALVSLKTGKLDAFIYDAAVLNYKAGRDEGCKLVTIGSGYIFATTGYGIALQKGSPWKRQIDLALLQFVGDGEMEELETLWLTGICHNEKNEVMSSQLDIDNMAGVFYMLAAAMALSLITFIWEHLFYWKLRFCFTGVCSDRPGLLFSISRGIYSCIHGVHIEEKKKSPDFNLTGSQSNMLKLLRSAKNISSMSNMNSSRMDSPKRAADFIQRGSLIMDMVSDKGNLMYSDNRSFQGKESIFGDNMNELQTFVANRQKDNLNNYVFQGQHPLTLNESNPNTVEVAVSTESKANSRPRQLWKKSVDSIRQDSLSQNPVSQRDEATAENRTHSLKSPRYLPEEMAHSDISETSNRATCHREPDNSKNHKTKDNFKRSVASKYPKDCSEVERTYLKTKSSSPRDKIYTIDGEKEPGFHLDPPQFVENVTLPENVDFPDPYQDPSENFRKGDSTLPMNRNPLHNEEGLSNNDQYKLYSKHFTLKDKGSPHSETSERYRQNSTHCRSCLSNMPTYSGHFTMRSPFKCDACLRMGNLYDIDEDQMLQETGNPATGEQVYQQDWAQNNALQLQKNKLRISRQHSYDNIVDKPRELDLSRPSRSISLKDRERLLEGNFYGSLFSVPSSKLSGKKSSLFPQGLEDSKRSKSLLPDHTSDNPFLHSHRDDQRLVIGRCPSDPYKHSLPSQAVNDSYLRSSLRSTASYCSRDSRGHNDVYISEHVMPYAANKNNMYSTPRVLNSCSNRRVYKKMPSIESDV
T4 sequence (O15399 28-1336, other chains not shown): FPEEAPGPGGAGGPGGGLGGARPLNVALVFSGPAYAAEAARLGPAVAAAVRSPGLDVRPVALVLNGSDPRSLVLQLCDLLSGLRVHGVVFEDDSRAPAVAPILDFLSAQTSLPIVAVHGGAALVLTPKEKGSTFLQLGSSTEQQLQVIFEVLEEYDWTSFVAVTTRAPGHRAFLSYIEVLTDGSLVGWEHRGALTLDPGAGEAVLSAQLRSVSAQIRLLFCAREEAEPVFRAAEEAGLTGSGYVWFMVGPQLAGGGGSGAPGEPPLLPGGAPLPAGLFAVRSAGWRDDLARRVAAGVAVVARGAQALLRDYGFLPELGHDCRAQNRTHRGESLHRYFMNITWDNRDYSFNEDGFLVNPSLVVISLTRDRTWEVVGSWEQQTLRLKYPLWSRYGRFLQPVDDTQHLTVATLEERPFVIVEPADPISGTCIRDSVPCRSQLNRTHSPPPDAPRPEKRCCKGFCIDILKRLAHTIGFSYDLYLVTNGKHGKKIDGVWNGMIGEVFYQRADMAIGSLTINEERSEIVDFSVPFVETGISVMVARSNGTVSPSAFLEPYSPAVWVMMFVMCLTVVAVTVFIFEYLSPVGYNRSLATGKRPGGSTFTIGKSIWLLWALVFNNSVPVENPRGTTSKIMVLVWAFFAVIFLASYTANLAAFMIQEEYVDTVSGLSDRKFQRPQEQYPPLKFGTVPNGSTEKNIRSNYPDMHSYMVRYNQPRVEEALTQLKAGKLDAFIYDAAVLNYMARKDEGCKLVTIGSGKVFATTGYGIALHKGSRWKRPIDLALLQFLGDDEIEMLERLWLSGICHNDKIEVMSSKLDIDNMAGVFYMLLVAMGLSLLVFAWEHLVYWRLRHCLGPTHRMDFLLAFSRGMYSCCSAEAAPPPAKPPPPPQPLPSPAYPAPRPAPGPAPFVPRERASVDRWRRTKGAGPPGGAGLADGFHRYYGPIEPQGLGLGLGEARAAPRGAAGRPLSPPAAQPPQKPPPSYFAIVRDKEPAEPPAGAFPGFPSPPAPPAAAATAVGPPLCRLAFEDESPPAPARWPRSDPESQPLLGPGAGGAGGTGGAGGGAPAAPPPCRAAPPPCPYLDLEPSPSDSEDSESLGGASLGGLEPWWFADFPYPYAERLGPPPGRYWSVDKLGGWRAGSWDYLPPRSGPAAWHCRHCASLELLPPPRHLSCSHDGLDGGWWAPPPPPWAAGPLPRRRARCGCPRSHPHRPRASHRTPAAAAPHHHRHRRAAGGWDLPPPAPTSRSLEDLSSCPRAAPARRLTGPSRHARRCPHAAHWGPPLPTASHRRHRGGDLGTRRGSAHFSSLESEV

O=C(O)c1cccnc1C(=O)O [Quinolinic acid]
calcium response (mean±SEM) [1, 6]: 7.5 ± 0.4 | calcium response (mean±SEM) [1, 7]: 41 ± 1.0 | calcium response (mean±SEM) [1, 8]: 26 ± 0.6 | calcium response (mean±SEM) [1, 9]: 46 ± 0.9 | EC50 ([1]; 10 μM glycine, fit with maximal response constrained at 75%, read-out: EC50): 850 µM | % effect on calcium entry, 100 QA [1, 10]: 2.5 ± 0.3% | calcium response (mean±SEM) ([1]; 1000 μM QA, 10 μM glycine): 41 ± 1.2 | % effect on calcium entry, 1000 QA [1, 11]: 41±1.1% | % effect on calcium entry, 1000 QA [1, 12]: 41 ± 1.2% | % effect on calcium entry, 1000 QA ([1]; 1000 μM QA, 10 μM glycine, 100% = 10 μM L-glutamate plus 10 μM glycine, listed as quinolinic acid): 41±1.2% | Minimal response (%) [1, 13]: −1.9% | Response at max conc (%) [1, 14]: 40% | calcium response (mean±SEM) [2, 6]: 3.7 ± 1.3 | calcium response (mean±SEM) [2, 7]: 27 ± 2.2 | calcium response (mean±SEM) [2, 8]: 27 ± 0.8 | calcium response (mean±SEM) [2, 9]: 27 ± 1.5 | EC50 ([2]; 10 μM glycine, read-out: EC50): 170 µM | % effect on calcium entry, 100 QA [2, 10]: 0.9 ± 0.7% | calcium entry in CRC ([2]; 333 μM quinolinic acid, 10 μM glycine): 23±3.0% | calcium response (mean±SEM) ([2]; 1000 μM QA, 10 μM glycine): 37 ± 1.3 | % effect on calcium entry, 1000 QA [2, 11]: 37±1.3% | % effect on calcium entry, 1000 QA [2, 12]: 37 ± 1.3% | Minimal response (%) [2, 13]: −2.1% | Response at max conc (%) ([2]; 10 μM glycine): 25% | Response at max conc (%) ([2]; 10 μM glycine, listed as quinolinic acid): 25±2.1% | calcium response (mean±SEM) [3, 6]: −2.0 ± 1.1 | calcium response (mean±SEM) [3, 7]: −4.1 ± 0.9^ | calcium response (mean±SEM) [3, 8]: 27 ± 1.1 | calcium response (mean±SEM) [3, 9]: 6.6 ± 0.8 | EC50 ([3]; 10 μM glycine, read-out: EC50): > 1000 µM | % effect on calcium entry, 100 QA [3, 10]: −2.8 ± 0.6% | calcium response (mean±SEM) ([3]; 1000 μM QA, 10 μM glycine): −5.5 ± 0.4^ | % effect on calcium entry, 1000 QA [3, 11]: −5.5 ± 0.4^ % | Minimal response (%) [3, 13]: −4.0% | intracellular calcium increase elicited by 0.2 μM L-glutamate ([3]; plus 1000 μM quinolinic acid, 10 μM glycine): 6.6±0.8% | Response at max conc (%) [3, 14]: −4.0% | calcium response (mean±SEM) [4, 6]: 26 ± 1.2 | calcium response (mean±SEM) [4, 7]: 53 ± 2.3 | calcium response (mean±SEM) [4, 8]: 93 ± 1.0 | calcium response (mean±SEM) [4, 9]: 58 ± 1.6 | EC50 ([4]; 10 μM glycine, read-out: EC50): 520 µM | % effect on calcium entry, 100 QA [4, 10]: −0.1 ± 0.4% | calcium response (mean±SEM) ([4]; 1000 μM QA, 10 μM glycine): 55 ± 1.1 | % effect on calcium entry, 1000 QA [4, 11]: 55±1.1% | % effect on calcium entry, 1000 QA [4, 12]: 55 ± 1.1% | Minimal response (%) [4, 13]: −1.3% | Response at max conc (%) [4, 14]: 50% | EC50 [5]: 518 ± 35 µM

— patent US20230017786A1, “DEXTR[…] A DISEASE-MODIFYING TREATMENT FOR NEUROPSYCHIATRIC DISORDERS AND DISEASES” (priority 2020, published 2023)
